These results are taken from patent US10022453B2 (BAYER PHARMA AKTIENGESELLSCHAFT, priority 2013, dated 2018).

pIC50: −log10 of the molar value.

The subject of data set [1] is NCI-H292. Nature of the data set: Cytotoxic effects, MTT assay. The data set is classed as cell-based. The settings on record: Homo sapiens, 72 h incubation. The protocol:
The cells are cultivated by a standard method, as indicated in the […] (ATCC) for the respective cell lines.
At the end of the selected incubation time, the MTT reagent is incubated with the cells for 4 h, followed by lysis of the cells overnight by addition of the detergent. […] The proliferation of cells which were not treated with test substance but were otherwise identically treated was defined as the 100% figure.

Data set [2] deals with T1, human kinesin spindle protein KSP/Eg5 (Homo sapiens, UniProt P52732).
T1 construct: The motor domain of the human kinesin spindle protein KSP/Eg5; purchased tebu-bio/Cytoskeleton Inc 027EG01-XL
T1 sequence (P52732 18-359 limits assumed): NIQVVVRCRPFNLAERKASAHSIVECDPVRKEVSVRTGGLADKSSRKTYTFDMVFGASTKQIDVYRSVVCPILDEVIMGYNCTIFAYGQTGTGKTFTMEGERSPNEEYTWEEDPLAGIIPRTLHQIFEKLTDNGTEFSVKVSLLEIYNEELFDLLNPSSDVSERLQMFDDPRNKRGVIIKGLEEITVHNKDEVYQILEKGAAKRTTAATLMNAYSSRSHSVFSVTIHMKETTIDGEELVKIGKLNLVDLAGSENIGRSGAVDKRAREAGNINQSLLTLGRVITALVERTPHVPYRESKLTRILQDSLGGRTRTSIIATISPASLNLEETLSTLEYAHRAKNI
Nature of the data set: Inhibition of the kinesin spindle protein KSP/Eg5 (ATPase, malachite green). The settings on record: 10 nM KSP motor domain, 500 μM ATP, 2 h RT. In kind it is biochemical. The gist of the method: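 KSP/Eg5 motor domain (10 nM) preincubated 5 min at RT with 50 μg/ml taxol-stabilized bovine or porcine microtubules in 15 mM PIPES pH 6.8, 5 mM MgCl2, 10 mM DTT. IC50 = mean of three experiments.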

A short description of data set [3]: Cell permeability, flux assay using Caco-2 cells. The settings on record: human, Caco-2.

`CC(C)(C)[C@H](c1nn(-c2cc(F)ccc2F)cc1Cc1ccccc1)N(CC[C@H](N)C(=O)NNC(=O)CCCCCN1C(=O)CC(SC[C@H](N)C(=O)O)C1=O)C(=O)CO.O=C(O)C(F)(F)F` (stereo partly drawn) [Example 137, S-{1-[6-(2-{(2S)-2-Amino-4-[{(1R)-1-[4-benzyl-1-(2,5-difluorophenyl)-1H-pyrazol-3-yl]-2,2-dimethylpropyl}(glycoloyl)amino]butanoyl}hydrazino)-6-oxohexyl]-2,5-dioxopyrrolidin-3-yl}-L-cysteine/trifluoroacetic acid (1:1)]: the IC50 – broadly, the point on the concentration scale where inhibition reaches its midpoint – in data set [1] was at least 500 nM. In addition, the pIC50 (in general, the negative decadic logarithm of the IC50, by convention in mol/L) in data set [2] is 9.11. In addition, in data set [3], the Papp B→A (usually the apparent permeability from the basolateral to the apical side of a cell layer) at 2 h was determined as 1.7 ×10⁻⁶ cm/s and the efflux ratio (commonly a quotient of directional permeabilities that is used to spot active efflux) at 2 h turned out to be 19.
In data set [1], `CC(C)(C)[C@H](c1cc(-c2cc(F)ccc2F)cn1Cc1ccccc1)N(CC[C@H](N)C(=O)N[C@H]1CC[C@@H](C(=O)NCCN2C(=O)CC(SC[C@H](N)C(=O)O)C2=O)C1)C(=O)CO.O=C(O)C(F)(F)F` (stereo partly drawn) [Example 157, S-{1-[2-({[(1R,3S)-3-({(2S)-2-Amino-4-[{(1R)-1-[1-benzyl-4-(2,5-difluorophenyl)-1H-pyrrol-2-yl]-2,2-dimethylpropyl}(glycoloyl)amino]butanoyl}amino)cyclopentyl]carbonyl}amino)ethyl]-2,5-dioxopyrrolidin-3-yl}-L-cysteine/trifluoroacetic acid (1:1)] came in with an IC50 of at least 500 nM. This molecule also had a pIC50 in data set [2] of 8.02. For the same molecule, in data set [3], the Papp B→A at 2 h was found to be 0.77 ×10⁻⁶ cm/s and the efflux ratio at 2 h was determined as 7.2.
For `C[C@@H](NC(=O)[C@@H](N)CCN(C(=O)CO)[C@@H](c1nc(-c2cc(F)ccc2F)cn1Cc1ccccc1)C(C)(C)C)C(=O)NCCCC[C@H](N)C(=O)O.O=C(O)C(F)(F)F` [Example 159, N^6-(N-{(2S)-2-Amino-4-[{(1R)-1-[1-benzyl-4-(2,5-difluorophenyl)-1H-imidazol-2-yl]-2,2-dimethylpropyl}(glycoloyl)amino]butanoyl}-D-alanyl)-L-lysine/trifluoroacetic acid (1:1)] the same measures were 114 nM, 9.51, 0.7 ×10⁻⁶ cm/s and 6.1.
Taken in the same sequence, the figures for `CC(C)(C)[C@H](c1nc(-c2cc(F)ccc2F)cn1Cc1ccccc1)N(CC[C@H](N)C(=O)NCCC(=O)NCCN1C(=O)CC(SC[C@H](N)C(=O)O)C1=O)C(=O)CO.O=C(O)C(F)(F)F` (stereo partly drawn) [Example 130, S-(1-{2-[(N-{(2S)-2-Amino-4-[{(1R)-1-[1-benzyl-4-(2,5-difluorophenyl)-1H-imidazol-2-yl]-2,2-dimethylpropyl}(glycoloyl)amino]butanoyl}-beta-alanyl)amino]ethyl}-2,5-dioxopyrrolidin-3-yl)-L-cysteine/trifluoroacetic acid (1:1)] were 178 nM, 8.78, 1 ×10⁻⁶ cm/s and 6.7.
Taken in the same sequence, the figures for `CC(C)(C)[C@H](c1cc(-c2cc(F)ccc2F)cn1Cc1ccccc1)N(CC[C@H](N)C(=O)NCCN1C(=O)CC(SC[C@H](N)C(=O)O)C1=O)C(=O)CO.O=C(O)C(F)(F)F.O=C(O)C(F)(F)F` (stereo partly drawn) [Example 139, S-{(3R/S)-1-[2-({(2S)-2-amino-4-[{(1R)-1-[1-benzyl-4-(2,5-difluorophenyl)-1H-pyrrol-2-yl]-2,2-dimethylpropyl}(glycoloyl)amino]butanoyl}amino)ethyl]-2,5-dioxopyrrolidin-3-yl}-L-cysteine/trifluoroacetic acid (1:2)] were 134 nM, 8.74, 2.1 ×10⁻⁶ cm/s and 7.7.
In data set [1], `CC(C)(C)[C@H](c1nn(-c2cc(F)ccc2F)cc1Cc1ccccc1)N(CC[C@H](N)C(=O)NCCNC(=O)CSC[C@H](N)C(=O)O)C(=O)CO.O=C(O)C(F)(F)F` [Example 136, S-(2-{[2-({(2S)-2-Amino-4-[{(1R)-1-[4-benzyl-1-(2,5-difluorophenyl)-1H-pyrazol-3-yl]-2,2-dimethylpropyl}(glycoloyl)amino]butanoyl}amino)ethyl]amino}-2-oxoethyl)-L-cysteine/trifluoroacetic acid (1:1)] came in with an IC50 of at least 500 nM. This molecule also had a pIC50 in data set [2] of 9.48. Also, in data set [3], the apparent permeability from basolateral to apical (Papp B→A) at 2 h was 0.91 ×10⁻⁶ cm/s and the efflux ratio at 2 h came to 8.5.
As for `CC(C)(C)[C@H](c1cc(-c2cc(F)ccc2F)cn1Cc1ccccc1)N(CCCN)C(=O)CSCCCCCC(=O)NCCN1C(=O)CC(SC[C@H](N)C(=O)O)C1=O.O=C(O)C(F)(F)F.O=C(O)C(F)(F)F` (stereo partly drawn) [Example 141, S-[(3R/S)-1-(2-{[6-({2-[(3-aminopropyl) {(1R)-1-[1-benzyl-4-(2,5-difluorophenyl)-1H-pyrrol-2-yl]-2,2-dimethylpropyl}amino]-2-oxoethyl}sulphanyl)hexanoyl]amino}ethyl)-2,5-dioxopyrrolidin-3-yl]-L-cysteine/trifluoroacetic acid (1:2)], the midpoint of inhibition in data set [1], the IC50, lay at 16.1 nM. The pIC50 in data set [2] was 9.04. In addition, in data set [3], the Papp B→A at 2 h amounted to 3 ×10⁻⁶ cm/s and the efflux ratio at 2 h stood at 35.
Taken in the same sequence, the figures for `CC(C)(C)[C@H](c1cc(-c2cc(F)ccc2F)cn1Cc1ccccc1)N(CC[C@H](N)C(=O)NCCN)C(=O)CO.O=C(O)C(F)(F)F` [Example 198] were 19.5 nM, 7.97, 51.9 ×10⁻⁶ cm/s and 34.
For `CC(C)(C)[C@H](c1cc(-c2cc(F)ccc2F)cn1Cc1ccccc1)N(CC[C@H](N)C(=O)NCCC(=O)NCCN1C(=O)CC(SC[C@H](N)C(=O)O)C1=O)C(=O)CO.O=C(O)C(F)(F)F` (stereo partly drawn) [Example 133, S-(1-{2-[(N-{(2S)-2-Amino-4-[{(1R)-1-[1-benzyl-4-(2,5-difluorophenyl)-1H-pyrrol-2-yl]-2,2-dimethylpropyl}(glycoloyl)amino]butanoyl}-beta-alanyl)amino]ethyl}-2,5-dioxopyrrolidin-3-yl)-L-cysteine/trifluoroacetic acid (1:1)] the same measures were 155 nM, 8.38, 0.43 ×10⁻⁶ cm/s and 6.
For `C[C@H](NC(=O)CCNC(=O)[C@@H](N)CCN(C(=O)CO)[C@@H](c1nn(-c2cc(F)ccc2F)cc1Cc1ccccc1)C(C)(C)C)C(=O)N[C@@H](CCCNC(N)=O)C(=O)Nc1ccc(N2C(=O)CC(SC[C@H](N)C(=O)O)C2=O)cc1.O=C(O)C(F)(F)F` (stereo partly drawn) [Example 132, N-{(2S)-2-Amino-4-[{(1R)-1-[4-benzyl-1-(2,5-difluorophenyl)-1H-pyrazol-3-yl]-2,2-dimethylpropyl}(glycoloyl)amino]butanoyl}-beta-alanyl-L-alanyl-N-[4-(3-{[(2R)-2-amino-2-carboxyethyl]sulphanyl}-2,5-dioxopyrrolidin-1-yl)phenyl]-N^5-carbamoyl-L-ornithinamide/trifluoroacetic acid (1:1)] the same measures were at least 500 nM, 8.78, 0.16 ×10⁻⁶ cm/s and 1.
In data set [1], `CC(C)(C)[C@H](c1nc(-c2cc(F)ccc2F)cn1Cc1ccccc1)N(CCCN)C(=O)CSCCC(NC(=O)CCOCCOCCOCCOCCNC(=O)CCN1C(=O)CC(SC[C@H](N)C(=O)O)C1=O)C(=O)O.O=C(O)C(F)(F)F.O=C(O)C(F)(F)F` (mixture of isomers) [Example 140, N-[19-(3(R/S)-[{(2R)-2-Amino-2-carboxyethyl]sulphanyl}-2,5-dioxopyrrolidin-1-yl)-17-oxo-4,7,10,13-tetraoxa-16-azanonadecan-1-oyl]-R/S-{2-[(3-aminopropyl){(1R)-1-[1-benzyl-4-(2,5-difluorophenyl)-1H-imidazol-2-yl]-2,2-dimethylpropyl}amino]-2-oxoethyl}homocysteine/trifluoroacetic acid (1:2)] displayed an IC50 of at least 500 nM. In addition, the pIC50 in data set [2] was 8.60. In addition, in data set [3], the Papp B→A at 2 h stood at 0.17 ×10⁻⁶ cm/s and the efflux ratio at 2 h turned out to be 1.
For `CC(C)[C@H](NC(=O)CCCCCN1C(=O)CC(SC[C@H](N)C(=O)O)C1=O)C(=O)N[C@@H](C)C(=O)N[C@@H](CCCCNC(=O)CCNC(=O)[C@@H](N)CCN(C(=O)CO)[C@@H](c1cc(-c2cc(F)ccc2F)cn1Cc1ccccc1)C(C)(C)C)C(=O)O` (stereo partly drawn) [Example 160, N^6-(N-{(2S)-2-Amino-4-[{(1R)-1-[1-benzyl-4-(2,5-difluorophenyl)-1H-pyrrol-2-yl]-2,2-dimethylpropyl}(glycoloyl)amino]butanoyl}-beta-alanyl)-N^2-N-{[6-(3-{[(2R)-2-amino-2-carboxyethyl]sulfanyl}-2,5-dioxopyrrolidin-1-yl)hexanoyl]-L-valyl-L-alanyl}-L-lysine/trifluoroacetic acid (1:1)] the same measures were at least 500 nM, 9.17, 0.16 ×10⁻⁶ cm/s and 1.
On to `CC(C)(C)[C@H](c1nn(-c2cc(F)ccc2F)cc1Cc1ccccc1)N(CCCN)C(=O)CO` [Example 96, N-(3-Aminopropyl)-N-{(1R)-1-[4-benzyl-1-(2,5-difluorophenyl)-1H-pyrazol-3-yl]-2,2-dimethylpropyl}-2-hydroxyacetamide], for which the IC50 in data set [1] stood at 2.09 nM. The same molecule gave a negative logarithm of the IC50 (pIC50) in data set [2] of 8.11. In addition, in data set [3], the Papp B→A at 2 h came to 28.5 ×10⁻⁶ cm/s and the efflux ratio at 2 h is 16.
